Patent US20250282785A1, “PYRROLIDINONE DERIVATIVES AS INHIBITORS OF NF KAPPA B INDUCING KINASE” (priority 2022, published 2025)
pIC50: −log10 of the molar value.

Legend:
[1] = target: Recombinant Human NF-Kappab-Inducing Kinase (NIK/MAP3K14) (Homo sapiens, UniProt Q99558); assay: Inhibition of auto-phosphorylation of recombinant human NIK/MAP3K14 (AlphaScreen); assay type: biochemical; conditions: NIK/MAP3K14 auto-phosphorylation, 5 microM ATP, 1 nM enzyme, 2 h at 25° C.; average of values; read-out: Assay 1 IC50
How it was run: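 GST-tagged NIK (1 nM) auto-phosphorylation with 5 µM ATP in Tris pH 7.5/MgCl2 buffer, 0.7% DMSO, 2 h at 25 °C. Phospho-IKK Ser176/180 antibody detected by AlphaScreen beads. Signal normalized to full-enzyme and no-ATP controls; IC50 from sigmoidal fit of % inhibition vs log concentration.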

[2] = tested on: p-IKKα levels in L363 (NIK translocated multiple myeloma) cells; assay: Effect of compounds on p-IKKα levels in L363 cells (AlphaLISA SureFire Ultra); assay type: cell-based; conditions: Homo sapiens, L-363; L363 cells, BAFF stimulated, MG132, 6 h; average of values; read-out: Assay 2 IC50
How it was run: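 L363 myeloma cells were BAFF-stimulated (250 ng/ml) overnight in DMEM/0.5% BSA, then exposed 6 h at 37° C to compound (11-point 1:3 series, 0.3% DMSO) with BAFF plus 10 uM MG132. p-IKKα (Ser 176/180) was read by AlphaLISA SureFire Ultra in lysates. IC50 came from sigmoidal fits normalized to stimulated and unstimulated controls.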

Recombinant Human NF-Kappab-Inducing Kinase (NIK/MAP3K14), sequence (Q99558 whole entry): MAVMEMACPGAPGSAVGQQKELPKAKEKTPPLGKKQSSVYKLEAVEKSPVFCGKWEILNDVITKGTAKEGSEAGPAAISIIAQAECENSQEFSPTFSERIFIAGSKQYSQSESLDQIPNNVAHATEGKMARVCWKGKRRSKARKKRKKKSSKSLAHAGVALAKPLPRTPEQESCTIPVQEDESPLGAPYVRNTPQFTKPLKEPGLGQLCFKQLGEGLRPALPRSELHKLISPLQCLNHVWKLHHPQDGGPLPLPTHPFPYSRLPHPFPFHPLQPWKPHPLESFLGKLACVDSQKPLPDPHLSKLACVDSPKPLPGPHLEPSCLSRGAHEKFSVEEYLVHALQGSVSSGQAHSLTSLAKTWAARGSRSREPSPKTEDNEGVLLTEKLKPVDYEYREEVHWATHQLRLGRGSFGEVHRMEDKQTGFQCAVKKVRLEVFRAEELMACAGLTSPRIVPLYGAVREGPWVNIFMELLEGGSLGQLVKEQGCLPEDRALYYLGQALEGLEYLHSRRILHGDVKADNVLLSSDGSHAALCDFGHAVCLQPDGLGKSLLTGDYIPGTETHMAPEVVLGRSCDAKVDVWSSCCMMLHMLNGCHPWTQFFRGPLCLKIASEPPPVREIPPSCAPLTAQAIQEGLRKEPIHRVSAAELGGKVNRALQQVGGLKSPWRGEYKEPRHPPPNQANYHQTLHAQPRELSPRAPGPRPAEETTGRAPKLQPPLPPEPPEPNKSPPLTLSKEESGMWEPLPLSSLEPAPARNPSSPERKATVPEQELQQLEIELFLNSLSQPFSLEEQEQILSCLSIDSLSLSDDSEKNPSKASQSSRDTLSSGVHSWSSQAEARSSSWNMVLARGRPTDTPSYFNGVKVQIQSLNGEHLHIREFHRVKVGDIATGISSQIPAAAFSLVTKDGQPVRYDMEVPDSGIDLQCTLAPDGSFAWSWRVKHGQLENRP

SMILES	pIC50 [1]	pIC50 [2]
CN1CCC(O)(c2cc(-c3cccc(-n4nc(C(N)=O)c5ccccc54)c3)on2)C1=O (racemic) [Example 167, (R,S)-1-(3-(3-(3-Hydroxy-1-methyl-2-oxopyrrolidin-3-yl)isoxazol-5-yl)phenyl)-1H-indazole-3-carboxamide]	> 7.00	6.30 to 7.00
CN1CC[C@@](O)(c2cc(-c3cccc(-c4nc(Nc5ccn(C)n5)c(C(F)(F)F)c(C(N)=O)n4)c3)no2)C1=O [Example 133, (R)-2-(3-(5-(3-Hydroxy-1-methyl-2-oxopyrrolidin-3-yl)isoxazol-3-yl)phenyl)-6-((1-methyl-1H-pyrazol-3-yl)amino)-5-(trifluoromethyl)pyrimidine-4-carboxamide]	> 7.00	< 6.30
CN1CC[C@@](O)(c2cc(-c3cccc(-c4nc(C(N)=O)c5ccc(F)cc5n4)c3)no2)C1=O [Example 158, (R)-7-Fluoro-2-(3-(5-(3-hydroxy-1-methyl-2-oxopyrrolidin-3-yl)isoxazol-3-yl)phenyl)quinazoline-4-carboxamide]	> 7.00	< 6.30
CN1CC[C@@](O)(c2cc(-c3cccc(-c4cccc(C(N)=O)n4)c3)on2)C1=O [Example 18, (R)-6-(3-(3-(3-Hydroxy-1-methyl-2-oxopyrrolidin-3-yl)isoxazol-5-yl)phenyl)picolinamide]	> 7.00	< 6.30
CN1CC[C@@](O)(c2cc(-c3cccc(-c4cn5cccc(C(N)=O)c5n4)c3)no2)C1=O [Example 92, (R)-2-(3-(5-(3-Hydroxy-1-methyl-2-oxopyrrolidin-3-yl)isoxazol-3-yl)phenyl) imidazo[1,2-a]pyridine-8-carboxamide]	6.30 to 7.00	< 6.30
CN1CC[C@@](O)(c2cc(-c3cccc(-c4sc(Br)nc4C(N)=O)c3)no2)C1=O (single isomer, unassigned) [Example 214]	< 6.30	< 6.30
CN1CC[C@@](O)(c2cc(-c3cccc(-c4cn5ccnc5cn4)c3)no2)C1=O [Example 70, (R)-3-Hydroxy-3-(3-(3-(imidazo[1,2-a]pyrazin-6-yl)phenyl)isoxazol-5-yl)-1-methylpyrrolidin-2-one]	< 6.30	< 6.30
CN1CC[C@@](O)(c2cc(-c3cccc(-c4ncc(NC5COC5)c(C(N)=O)n4)c3)no2)C1=O [Example 105, (R)-2-(3-(5-(3-Hydroxy-1-methyl-2-oxopyrrolidin-3-yl)isoxazol-3-yl)phenyl)-5-(oxetan-3-ylamino)pyrimidine-4-carboxamide]	> 7.00	> 7.00
CN1CC[C@@](O)(c2cc(-c3cccc(-c4cc5cc[nH]c5c(C(N)=O)n4)c3)no2)C1=O [Example 139, (R)-5-(3-(5-(3-Hydroxy-1-methyl-2-oxopyrrolidin-3-yl)isoxazol-3-yl)phenyl)-1H-pyrrolo[2,3-c]pyridine-7-carboxamide]	> 7.00	> 7.00
Cc1ccc(C(N)=O)nc1-c1cccc(-c2cc([C@]3(O)CCN(C)C3=O)on2)c1 [Example 156, (R)-6-(3-(5-(3-hydroxy-1-methyl-2-oxopyrrolidin-3-yl)isoxazol-3-yl)phenyl)-5-methylpicolinamide]	6.30 to 7.00	< 6.30
CN1CC[C@@](O)(c2cc(-c3cccc(-c4nc(C(N)=O)c(CN5CCCC5)s4)c3)no2)C1=O [Example 231, (R)-2-(3-(5-(3-Hydroxy-1-methyl-2-oxopyrrolidin-3-yl)isoxazol-3-yl)phenyl)-5-(pyrrolidin-1-ylmethyl)thiazole-4-carboxamide]	> 7.00	< 6.30
[2H]C1([2H])N(C)C(=O)[C@](O)(c2cc(-c3cccc(-c4cc(C5CC5)c(N)c(C(N)=O)n4)c3)no2)C1([2H])[2H] [Example 177, (R)-3-Amino-4-cyclopropyl-6-(3-(5-(3-hydroxy-1-methyl-2-oxopyrrolidin-3-yl-4,4,5,5-d4)isoxazol-3-yl)phenyl)picolinamide]	> 7.00	> 7.00
Cc1c(-c2cccc(-c3cc([C@]4(O)CCN(C)C4=O)on3)c2)nc(C(N)=O)n1C1CC1 [Example 122, (R)-1-Cyclopropyl-4-(3-(5-(3-hydroxy-1-methyl-2-oxopyrrolidin-3-yl)isoxazol-3-yl)phenyl)-5-methyl-1H-imidazole-2-carboxamide]	6.30 to 7.00	< 6.30
CN1CC[C@@](O)(c2cc(-c3cccc(-c4ccc5c(n4)c(N)nn5C)c3)no2)C1=O [Example 5, (R)-3-(3-(3-(3-Amino-1-methyl-1H-pyrazolo[4,3-b]pyridin-5-yl)phenyl)isoxazol-5-yl)-3-hydroxy-1-methylpyrrolidin-2-one]	6.30 to 7.00	< 6.30
CN1CC[C@@](O)(c2cc(-c3cccc(-c4cc(C(N)=O)ccn4)n3)no2)C1=O [Example 198, (R)-6′-(5-(3-Hydroxy-1-methyl-2-oxopyrrolidin-3-yl)isoxazol-3-yl)-[2,2′-bipyridine]-4-carboxamide]	6.30 to 7.00	< 6.30
Cc1ncnc2ccc(-c3cccc(-c4cc([C@]5(O)CCN(C)C5=O)on4)c3)nc12 [Example 25, (R)-3-Hydroxy-1-methyl-3-(3-(3-(4-methylpyrido[3,2-d]pyrimidin-6-yl)phenyl)isoxazol-5-yl)pyrrolidin-2-one]	6.30 to 7.00	< 6.30
CN1CC[C@@](O)(c2cc(-c3cccc(-c4ccc5nnc(N)n5c4)c3)no2)C1=O [Example 74, (R)-3-(3-(3-(3-Amino-[1,2,4]triazolo[4,3-a]pyridin-6-yl)phenyl)isoxazol-5-yl)-3-hydroxy-1-methylpyrrolidin-2-one]	< 6.30	< 6.30
COc1cc(-c2cccc(-c3cc([C@]4(O)CCN(C)C4=O)on3)c2)cc(C(N)=O)n1 [Example 47, (R)-4-(3-(5-(3-Hydroxy-1-methyl-2-oxopyrrolidin-3-yl)isoxazol-3-yl)phenyl)-6-methoxypicolinamide]	< 6.30	< 6.30
CN1CC[C@@](O)(c2cc(-c3cccc(-c4nc(C(N)=O)c(NC5COC5)s4)c3)no2)C1=O [Example 210, (R)-2-(3-(5-(3-Hydroxy-1-methyl-2-oxopyrrolidin-3-yl)isoxazol-3-yl)phenyl)-5-(oxetan-3-ylamino)thiazole-4-carboxamide]	> 7.00	> 7.00
CC(C)N1CCn2c(-c3cccc(-c4cc([C@]5(O)CCN(C)C5=O)on4)c3)nc(C(N)=O)c2C1 [Example 233, (R)-3-(3-(5-(3-Hydroxy-1-methyl-2-oxopyrrolidin-3-yl)isoxazol-3-yl)phenyl)-7-isopropyl-5,6,7,8-tetrahydroimidazo[1,5-a]pyrazine-1-carboxamide]	< 6.30	< 6.30
Cc1nc(N)c2nc(-c3cccc(-c4cc([C@]5(O)CCN(C)C5=O)no4)c3)ccc2n1 [Example 3, (R)-3-(5-(3-(4-Amino-2-methylpyrido[3,2-d]pyrimidin-6-yl)phenyl)isoxazol-3-yl)-3-hydroxy-1-methylpyrrolidin-2-one]	> 7.00	< 6.30
COc1cc(-c2cc(-c3cc([C@@]4(O)C(=O)N(C)CC4(F)F)on3)ccc2F)nc2c(N)ncnc12 [Example 119, (R)-3-(3-(3-(4-Amino-8-methoxypyrido[3,2-d]pyrimidin-6-yl)-4-fluorophenyl)isoxazol-5-yl)-4,4-difluoro-3-hydroxy-1-methylpyrrolidin-2-one]	> 7.00	6.30 to 7.00
